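Exposure lasted 48 hours, with cells grown in 96-well plates and compounds tested at five concentrations. Abbreviation: GI50, concentration required for 50% inhibition of growth. TGI: total growth inhibition.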
Assays:
Assay in all cases: growth of human tumour cells (NCI), 48 h
786-0 renal = system: 786-0 renal
A498 renal = system: A498 renal
A549 NSCLC = system: A549 NSCLC
ACHN renal = system: ACHN renal
BT-549 breast = system: BT-549 breast
CAKI-1 renal = system: CAKI-1 renal
CCRF-CEM leukemia = system: CCRF-CEM leukemia
COLO 205 colon = system: COLO 205 colon
DU-145 prostate = system: DU-145 prostate
EKVX NSCLC = system: EKVX NSCLC
HCC-2998 colon = system: HCC-2998 colon
HCT-116 colon = system: HCT-116 colon
HCT-15 colon = system: HCT-15 colon
HL-60(TB) leukemia = system: HL-60(TB) leukemia
HOP-62 NSCLC = system: HOP-62 NSCLC
HOP-92 NSCLC = system: HOP-92 NSCLC
HS 578T breast = system: HS 578T breast
HT29 colon = system: HT29 colon
IGROV1 ovarian = system: IGROV1 ovarian
K-562 leukemia = system: K-562 leukemia
KM12 colon = system: KM12 colon
LOX IMVI melanoma = system: LOX IMVI melanoma
M14 melanoma = system: M14 melanoma
MALME-3M melanoma = system: MALME-3M melanoma
MCF7 breast = system: MCF7 breast
MDA-MB-231 breast = system: MDA-MB-231 breast
MDA-MB-435 = system: MDA-MB-435
MOLT-4 leukemia = system: MOLT-4 leukemia
NCI-H23 lung = system: NCI-H23 lung
NCI-H522 lung = system: NCI-H522 lung
NCI/ADR-RES ovarian = system: NCI/ADR-RES ovarian
OVCAR-3 ovarian = system: OVCAR-3 ovarian
OVCAR-4 ovarian = system: OVCAR-4 ovarian
OVCAR-5 ovarian = system: OVCAR-5 ovarian
OVCAR-8 ovarian = system: OVCAR-8 ovarian
PC-3 prostate = system: PC-3 prostate
RPMI-8226 leukemia = system: RPMI-8226 leukemia
RXF 393 renal = system: RXF 393 renal
SF-268 CNS = system: SF-268 CNS
SF-295 CNS = system: SF-295 CNS
SF-539 CNS = system: SF-539 CNS
SK-MEL-2 melanoma = system: SK-MEL-2 melanoma
SK-MEL-28 melanoma = system: SK-MEL-28 melanoma
SK-MEL-5 melanoma = system: SK-MEL-5 melanoma
SN12C renal = system: SN12C renal
SNB-19 CNS = system: SNB-19 CNS
SNB-75 CNS = system: SNB-75 CNS
SR leukemia = system: SR leukemia
SW-620 colon = system: SW-620 colon
T-47D breast = system: T-47D breast
TK-10 renal = system: TK-10 renal
U251 CNS = system: U251 CNS
UACC-257 melanoma = system: UACC-257 melanoma
UACC-62 melanoma = system: UACC-62 melanoma
UO-31 renal = system: UO-31 renal
NCI-H226 lung = system: NCI-H226 lung
NCI-H460 lung = system: NCI-H460 lung
SK-OV-3 ovarian = system: SK-OV-3 ovarian

Structure (SMILES): CN(C)Cc1cc(C(=O)/C=C/c2ccc(/C=C/C(=O)c3cc(CN(C)C)c(O)c(CN(C)C)c3)cc2)cc(CN(C)C)c1O
- TGI (786-0 renal): 58.1 µM
- TGI (A498 renal): > 100 µM
- TGI (A549 NSCLC): > 100 µM
- TGI (ACHN renal): > 100 µM
- TGI (BT-549 breast): 60.2 µM
- TGI (CAKI-1 renal): > 100 µM
- TGI (CCRF-CEM leukemia): > 100 µM
- TGI (COLO 205 colon): 28.2 µM
- TGI (DU-145 prostate): > 100 µM
- TGI (EKVX NSCLC): > 100 µM
- TGI (HCC-2998 colon): 33.4 µM
- TGI (HCT-116 colon): 34 µM
- TGI (HCT-15 colon): > 100 µM
- TGI (HL-60(TB) leukemia): 98 µM
- TGI (HOP-62 NSCLC): > 100 µM
- TGI (HOP-92 NSCLC): 56.4 µM
- TGI (HS 578T breast): > 100 µM
- TGI (HT29 colon): 37.7 µM
- TGI (IGROV1 ovarian): > 100 µM
- TGI (K-562 leukemia): > 100 µM
- TGI (KM12 colon): 56.3 µM
- TGI (LOX IMVI melanoma): 26.5 µM
- TGI (M14 melanoma): 46.8 µM
- TGI (MALME-3M melanoma): > 100 µM
- TGI (MCF7 breast): > 100 µM
- TGI (MDA-MB-231 breast): 41.1 µM
- TGI (MDA-MB-435): 79.7 µM
- TGI (MOLT-4 leukemia): 68.6 µM
- TGI (NCI-H23 lung): 55.7 µM
- TGI (NCI-H522 lung): 40.1 µM
- TGI (NCI/ADR-RES ovarian): > 100 µM
- TGI (OVCAR-3 ovarian): > 100 µM
- TGI (OVCAR-4 ovarian): > 100 µM
- TGI (OVCAR-5 ovarian): 59.8 µM
- TGI (OVCAR-8 ovarian): > 100 µM
- TGI (PC-3 prostate): 49.6 µM
- TGI (RPMI-8226 leukemia): 65.5 µM
- TGI (RXF 393 renal): > 100 µM
- TGI (SF-268 CNS): > 100 µM
- TGI (SF-295 CNS): > 100 µM
- TGI (SF-539 CNS): 78.8 µM
- TGI (SK-MEL-2 melanoma): > 100 µM
- TGI (SK-MEL-28 melanoma): > 100 µM
- TGI (SK-MEL-5 melanoma): > 100 µM
- TGI (SN12C renal): 76 µM
- TGI (SNB-19 CNS): > 100 µM
- TGI (SNB-75 CNS): > 100 µM
- TGI (SR leukemia): > 100 µM
- TGI (SW-620 colon): 54.7 µM
- TGI (T-47D breast): > 100 µM
- TGI (TK-10 renal): > 100 µM
- TGI (U251 CNS): 47 µM
- TGI (UACC-257 melanoma): > 100 µM
- TGI (UACC-62 melanoma): 94.3 µM
- TGI (UO-31 renal): > 100 µM

Structure (SMILES): CCN(CC)CC(C)Nc1ccc(C)c2sc3ccccc3c(=O)c12 (stereo not drawn)
- GI50 (786-0 renal): 3.14 µM
- TGI (786-0 renal): 11.2 µM
- GI50 (A498 renal): 1.92 µM
- TGI (A498 renal): 8.07 µM
- GI50 (A549 NSCLC): 3.02 µM
- TGI (A549 NSCLC): 16.8 µM
- GI50 (ACHN renal): 3.88 µM
- TGI (ACHN renal): 15.1 µM
- GI50 (BT-549 breast): 7.14 µM
- TGI (BT-549 breast): 21 µM
- GI50 (CAKI-1 renal): 3.04 µM
- TGI (CAKI-1 renal): 14.1 µM
- GI50 (CCRF-CEM leukemia): 4.33 µM
- TGI (CCRF-CEM leukemia): 18 µM
- GI50 (COLO 205 colon): 1.68 µM
- TGI (COLO 205 colon): 3.77 µM
- GI50 (DU-145 prostate): 6.68 µM
- TGI (DU-145 prostate): 19.1 µM
- GI50 (EKVX NSCLC): 7.86 µM
- TGI (EKVX NSCLC): 24.2 µM
- GI50 (HCC-2998 colon): 3.19 µM
- TGI (HCC-2998 colon): 15 µM
- GI50 (HCT-116 colon): 3.07 µM
- TGI (HCT-116 colon): 12.3 µM
- GI50 (HCT-15 colon): 3.39 µM
- TGI (HCT-15 colon): 14.7 µM
- GI50 (HL-60(TB) leukemia): 1.62 µM
- TGI (HL-60(TB) leukemia): 5.24 µM
- GI50 (HOP-62 NSCLC): 2.63 µM
- TGI (HOP-62 NSCLC): 8.67 µM
- GI50 (HOP-92 NSCLC): 0.896 µM
- TGI (HOP-92 NSCLC): 8.36 µM
- GI50 (HS 578T breast): 2.29 µM
- TGI (HS 578T breast): 9 µM
- GI50 (HT29 colon): 3.29 µM
- TGI (HT29 colon): 10.8 µM
- GI50 (IGROV1 ovarian): 3.9 µM
- TGI (IGROV1 ovarian): 17.1 µM
- GI50 (K-562 leukemia): 0.216 µM
- TGI (K-562 leukemia): 3.15 µM
- GI50 (KM12 colon): 4.71 µM
- TGI (KM12 colon): 16.9 µM
- GI50 (LOX IMVI melanoma): 1.52 µM
- TGI (LOX IMVI melanoma): 3.99 µM
- GI50 (M14 melanoma): 1.62 µM
- TGI (M14 melanoma): 3.2 µM
- GI50 (MALME-3M melanoma): 2.45 µM
- TGI (MALME-3M melanoma): 8.29 µM
- GI50 (MCF7 breast): 2.1 µM
- TGI (MCF7 breast): 6.96 µM
- GI50 (MDA-MB-231 breast): 2.42 µM
- TGI (MDA-MB-231 breast): 8.99 µM
- GI50 (MDA-MB-435): 3.37 µM
- TGI (MDA-MB-435): 11.9 µM
- GI50 (MOLT-4 leukemia): 1.68 µM
- TGI (MOLT-4 leukemia): 5.93 µM
- GI50 (NCI-H226 lung): 4.21 µM
- TGI (NCI-H226 lung): 18.8 µM
- GI50 (NCI-H23 lung): 5.94 µM
- TGI (NCI-H23 lung): 19.8 µM
- GI50 (NCI-H460 lung): 2.05 µM
- TGI (NCI-H460 lung): 8.25 µM
- GI50 (NCI-H522 lung): 10.9 µM
- TGI (NCI-H522 lung): 28.7 µM
- GI50 (NCI/ADR-RES ovarian): 5.56 µM
- TGI (NCI/ADR-RES ovarian): 18.7 µM
- GI50 (OVCAR-3 ovarian): 6.33 µM
- TGI (OVCAR-3 ovarian): 19.2 µM
- GI50 (OVCAR-4 ovarian): 7.61 µM
- TGI (OVCAR-4 ovarian): 20.5 µM
- GI50 (OVCAR-5 ovarian): 2.95 µM
- TGI (OVCAR-5 ovarian): 12.4 µM
- GI50 (OVCAR-8 ovarian): 6.86 µM
- TGI (OVCAR-8 ovarian): 25.3 µM
- GI50 (PC-3 prostate): 3.6 µM
- TGI (PC-3 prostate): 16.6 µM
- GI50 (RPMI-8226 leukemia): 2.32 µM
- TGI (RPMI-8226 leukemia): 6.81 µM
- TGI (RXF 393 renal): 1.97 µM
- GI50 (SF-268 CNS): 6.24 µM
- TGI (SF-268 CNS): 18.4 µM
- GI50 (SF-295 CNS): 2.66 µM
- TGI (SF-295 CNS): 8.56 µM
- GI50 (SF-539 CNS): 3.2 µM
- TGI (SF-539 CNS): 12.7 µM
- GI50 (SK-MEL-2 melanoma): 9.07 µM
- TGI (SK-MEL-2 melanoma): 25.5 µM
- GI50 (SK-MEL-28 melanoma): 1.73 µM
- TGI (SK-MEL-28 melanoma): 3.41 µM
- GI50 (SK-MEL-5 melanoma): 1.48 µM
- TGI (SK-MEL-5 melanoma): 2.85 µM
- GI50 (SK-OV-3 ovarian): 2.85 µM
- TGI (SK-OV-3 ovarian): 12.3 µM
- GI50 (SN12C renal): 6.77 µM
- TGI (SN12C renal): 21 µM
- GI50 (SNB-19 CNS): 6.44 µM
- TGI (SNB-19 CNS): 19.5 µM
- GI50 (SNB-75 CNS): 2.2 µM
- TGI (SNB-75 CNS): 10.8 µM
- GI50 (SW-620 colon): 3.33 µM
- TGI (SW-620 colon): 13.7 µM
- GI50 (T-47D breast): 3.28 µM
- TGI (T-47D breast): 19.4 µM
- GI50 (TK-10 renal): 4.83 µM
- TGI (TK-10 renal): 17.6 µM
- GI50 (U251 CNS): 3.43 µM
- TGI (U251 CNS): 16.3 µM
- GI50 (UACC-257 melanoma): 2.07 µM
- TGI (UACC-257 melanoma): 4.82 µM
- GI50 (UACC-62 melanoma): 1.82 µM
- TGI (UACC-62 melanoma): 3.98 µM
- GI50 (UO-31 renal): 1.77 µM
- TGI (UO-31 renal): 7.69 µM
